Several values for one entry are separate records, joined by “and”; a condition that tells them apart may be missing. Equal entries are not always repeated.
Experiments:
[1] = system: P. falciparum clone (W2); test: Ex vivo Plasmodium falciparum-based bioassay (BA) of rhesus plasma, effect kinetics (ePD) as DHA equivalents; format: cell-based
Procedure: Blood was collected for pharmacokinetic/pharmacodynamics (PK/PD) analysis after the first dose only due to rapid clearance of artemisinin derivatives. Heparinized blood was collected at 0, 5, 20, 40 min, 1, 3, and 6 h post-dose and plasma samples were separated within 2 h by centrifugation (1500g, 10 min). Aliquots of samples were made for simultaneous measurement by HPLC [16] and bioassay [14], and stored at −80 °C until analysis.
The plasma anti-malarial activities of the artemisinin derivatives were measured using a previously published method [14]. […] After centrifugation, the supernatant (100 µL) was transferred to a 96-well flat bottom plate. Twofold serial dilutions were then made using heat inactivated pooled control serum (human:rhesus = 1:1). A suspension of malaria (W2 clone) infected erythrocytes was added to each well. The microtitre plate was placed into a gas-tight plexiglass chamber, flushed with a gas mixture of 90 % CO2, 5 % O2, and 5 % N2, and placed into an incubator (37 °C). Following 24 h incubation, the plate was removed from the chamber and pulsed with [^3H]-hypoxanthine solution to each well and incubated for another 18–20 h before harvesting. The incorporation of [^3H]-hypoxanthine by the parasites in each well was determined by counting in a scintillation counter.
A dose–response curve for each plasma sample was constructed by plotting [^3H]-hypoxanthine uptake on the Y-axis against the corresponding dilution factor on the X-axis after logarithmic transformation. The dilution factor value that inhibits parasite growth by 50 % (DF50) of each plasma sample was determined.

[2] = system: Plasmodium coatneyi; test: In vivo pharmacodynamics (parasite clearance) in uncomplicated P. coatneyi-infected splenectomized rhesus monkey model
Procedure: Twenty-two adult colony-born, Indian-origin rhesus macaques (Macaca mulatta) naïve monkeys were splenectomized and recovered well more than 1 month prior to entering the study. […] Twenty-two animals were randomized to two experiments of 11 monkeys. […] The control monkeys received intramuscular quinine treatment and the experimental animals received intravenous artemisinin candidates.
Based on our previous model validation, blood smears were performed to detect malaria parasites starting prior to inoculation on day 0 and continued daily (0700–0800 h). The monkeys were physically restrained in the squeeze cage restraint apparatus and approximately 0.1–0.2 ml whole blood was collected from each monkey by lancet puncture of the lateral auricular vein. Thick and thin smears were made on the same microscope glass slide and subsequently fixed in methanol and stained with Giemsa. When the smears were positive, white blood cell count (WBC) and/or red blood cell count (RBC) were also performed using automated haematology analyzer Sysmex K800 to calculate parasite density. Haematocrits were checked as needed. At study days 6–12, additional blood samples were obtained from all animals in the afternoon (1500–1600 h) to monitor parasitaemia levels. Daily blood smears were continued until two consecutive days with negative smears. Then the smear monitoring schedule was reduced to two times weekly for 2 weeks and then weekly for 6 weeks after completion of the last treatment.
Blood smear staining and parasitaemia determination took about 2 h. […] The control monkey received quinine treatment and the ten experimental animals received intravenous artemisinin derivative candidate.
After a week wash-out and recovery period, P. coatneyi (1 mL of >50,000 parasitized RBCs per microlitre or 5 × 10^6 RBC with a 1 % parasitaemia) were inoculated from a donor monkey into all the monkeys. The treatment was initiated at day 6 after inoculation at a parasitaemia ≥3 % or >200,000 parasites μL^−1 when the cohort of animals was minimally symptomatic. Drugs were given for 3 days with a loading dose initially followed by ½ of the first dose on the 2nd and 3rd days.
Blood smear were collected once daily in the morning. Once positive parasitaemia was observed and reached 2000 parasites μL^−1, blood smears were collected twice, in the morning and afternoon. Blood for slides preparation were collected from ear for thick and thin smear preparation. Blood films on glass slides were air dried, fixed with 100 % methanol, stained with Giemsa, and read under ×100 magnification oil emersion for parasite determination.
First, a thick smear was performed for parasite detection by reading the slides at least 50 fields under ×100 magnification oil emersion.

[3] = rhesus monkey, in vivo
Procedure: (§1) These doses were chosen as the minimal effective doses (from previous model development and validation studies, unpublished data) and blood was collected for pharmacokinetic analysis. After a week wash-out and recovery period, P. coatneyi (1 mL of >50,000 parasitized RBCs per microlitre or 5 × 10^6 RBC with a 1 % parasitaemia) were inoculated from a donor monkey into all the monkeys. The treatment was initiated at day 6 after inoculation at a parasitaemia ≥3 % or >200,000 parasites μL^−1 when the cohort of animals was minimally symptomatic. Drugs were given for 3 days with a loading dose initially followed by ½ of the first dose on the 2nd and 3rd days.
(§2) Blood was collected for pharmacokinetic/pharmacodynamics (PK/PD) analysis after the first dose only due to rapid clearance of artemisinin derivatives. Heparinized blood was collected at 0, 5, 20, 40 min, 1, 3, and 6 h post-dose and plasma samples were separated within 2 h by centrifugation (1500g, 10 min). Aliquots of samples were made for simultaneous measurement by HPLC [16] and bioassay [14], and stored at −80 °C until analysis. All glassware was silanized before use with a 0.5 % aqueous solution (v/v) of Pierce Aquasil (Rockford, IL, USA) according to the manufacturer’s recommended procedure. Solid-phase extraction was performed on C-18 elution cartridge (3.0 ml, J.T. Baker Co.) using a VAC ELUTE SPS24 sample processing station (Analytichem International, Harbour City, CA, USA). The cartridge was preconditioned by sequential washing with 2.5 ml acetonitrile, 2.5 ml methanol and 2.5 ml water. One ml of distilled water was added to the cartridge before adding plasma sample (0.5 ml). Then, the cartridge was washed with 2.5 ml distilled water, 2.5 ml of 0.05 % H3PO4 (pH 4.5) and 2.5 ml of 20 % acetonitrile and completely dried by closing the vacuum for 15 min. The analytes were collected by eluting with 0.5 ml methanol three times and then with 0.5 ml 90:10 n-butyl chloride: ethyl acetate twice. The organic phases were pooled. The combined organic phases were then evaporated to dryness under a stream of nitrogen at room temperature. Extraction residues were reconstituted with 50:50 ethanol: water (0.3 ml), at least 16 h before injection. The injection volume was 100 µl for all samples.
(§3) The plasma concentration of parent drugs, AL and AS, and their primary metabolites, DHA and 2-hydroxyartelinate (OHAL) respectively, were measured by HPLC with electrochemical detection in reductive mode (HPLC-ECD) [16], which was the only method for artemisinin compounds then (Additional files 1 and 2).
(§4) HPLC with reductive electrochemical detection was performed using a model BAS 200B liquid chromatography (Bioanalytical Systems, Inc., West Lafayette, Indiana, USA). A Nova-Pak® C18 (3.9 × 150 mm, Waters Corporation, Milford, MA, USA) was used with 40 % acetonitrile in sodium acetate buffer (pH 3.6) as mobile phase. Detection was performed using a thin dual-layer glassy carbon electrode run in parallel mode at a potential of −1.0 V versus Ag/AgCl. The system was operated at the following temperatures: mobile phase 35 °C, column and detector oven 30 °C, cell 31 °C with the flow rate of 1.5 mL min^−1. Artemisinin (ART) was used as an internal standard. Samples were injected via Gilson model 231 XL sampling injector equipped with a 100 µL loop, a Gilson model 401 dilutor/pipettor, a sampler controller keypad (Gilson Medical Electronics, Middleton, WI, USA), and a Valco electrically actuated switching valve (Valco Instrument Co. Inc) was used. This system automatically deoxygenated and injected sample, which permits the high sample throughput associated with automated injection. Data were acquired and analysed using a Millennium^32 Chromatography Manager (Waters Corporation, Milford, MA, USA).

[4] = set-up: method as in PMID 2631113; details: rats, 1 h following IV administration; cited from earlier work
[5] = in vivo; details: rhesus monkey; for AUC(0-t) / AUC(0-inf) / clearance / Cmax / half-life: iv, 8 mg/kg; for clearance: Cl
Procedure: as §1, §2, §3, §4

[6] = system: Plasmodium falciparum; set-up: method as in Newton, 2000 [22]; details: Human, 2 mg kg^−1 IV AS, ref Newton, 2000 [22], cited from earlier work
[7] = DHA equivalents, infected rhesus

t1/2, metabolite (M) [3]: 31.1 min
Cl ([3]; iv, 8 mg/kg): 4.38 L hr^-1 kg ^-1
concentration at 1 h ([5]; Plasma concentration, mean): 0.05 µM
concentration at 3 h ([5]; Plasma concentration, mean): 0 nM
concentration at 6 h ([5]; Plasma concentration, mean): 0 nM
AUC(0-t) ([5]; AUC 0-20): 4.78 µM·h
AUC(0-t) ([5]; AUC0–20, parent compound (P)): 4.8 µM·h
AUC(0-t) ([5]; AUC0–20, parent drug): 4.8 µM·h
AUC(0-inf) ([5]; AUC0–∞, parent compound (P)): 4.8 µM·h
AUC(0-inf) ([5]; AUC0–∞, parent drug): 4.8 µM·h
AUC(0-inf) ([5]; AUC(0-inf)): 5.2 µM·h
clearance [5]: 78.3 mL/min/kg
clearance ([5]; parent): 72.3 mL/min/kg
Cmax ([5]; parent compound (P)): 28.2 µM
Cmax ([5]; parent drug): 28.2 µM
half-life ([5]; t1/2, parent compound (P)): 3.47 min
half-life ([5]; t 1/2, z): 4.17 min
SMILES: C[C@H]1[C@H](OC(=O)CCC(=O)O)O[C@@H]2O[C@@]3(C)CC[C@H]4[C@H](C)CC[C@@H]1[C@@]24OO3 [IV AS, Artesunic acid]
Antimalarial activity expressed as DHA equi., mean ([1]; 0.08 h, healthy rhesus): 17.94 µmol/L
Antimalarial activity expressed as DHA equi., mean ([1]; 0.08 h, infected rhesus): 22.45 µmol/L
Antimalarial activity expressed as DHA equi., mean ([1]; 0.33 h, healthy rhesus): 5.77 µmol/L
Antimalarial activity expressed as DHA equi., mean ([1]; 0.33 h, infected rhesus): 4.28 µmol/L
Antimalarial activity expressed as DHA equi., mean ([1]; 0.67 h, healthy rhesus): 3.16 µmol/L
Antimalarial activity expressed as DHA equi., mean ([1]; 0.67 h, infected rhesus): 3.19 µmol/L
Antimalarial activity expressed as DHA equi., mean ([1]; 1.0 h, healthy rhesus): 1.75 µmol/L
Antimalarial activity expressed as DHA equi., mean ([1]; 1.0 h, infected rhesus): 1.58 µmol/L
Antimalarial activity expressed as DHA equi., mean ([1]; 3.0 h, healthy rhesus): 0.22 µmol/L
Antimalarial activity expressed as DHA equi., mean ([1]; 3.0 h, infected rhesus): 0.12 µmol/L
Antimalarial activity expressed as DHA equi., mean ([1]; 6.0 h, healthy rhesus): 0 µmol/L
Antimalarial activity expressed as DHA equi., mean ([1]; 6.0 h, infected rhesus): 0 µmol/L
AUC0–20, ePD [1, 7]: 242 µM·min
AUC0–∞, ePD [1, 7]: 485 µM·min
Bioactivity %AUC20 ([1]; mean, healthy rhesus): 48.3%
Bioactivity Cl ([1]; mean, healthy rhesus): 3.07 L hr^-1 kg ^-1
Bioactivity %AUC20 ([1]; mean, infected rhesus): 55.0%
Bioactivity (DHA equi.) AUC(0-inf) ([1]; mean, infected rhesus): 476 (346–607) µmole min L^-1
Bioactivity Cl ([1]; mean, infected rhesus): 3.18 (2.25–4.11) L hr^-1 kg ^-1
Bioactivity Cl ([1]; mean, infected rhesus, listed as I.V. AS/Na): 3.18 L hr^-1 kg ^-1
Parasite/µL, mean ([2]; 0.29 day post-dose): 32,080 Parasite/µL
Parasite Reduction ([2]; 0.29 day post-dose, IV AS experiment (mean; IM QN = its control monkey)): 88.6%
Parasite/µL, mean ([2]; 1.00 day post-dose): 63,163 Parasite/µL
Parasite Reduction ([2]; 1.00 day post-dose, IV AS experiment): 81.1%
Parasite/µL, mean ([2]; 1.29 day post-dose): 9,364 Parasite/µL
Parasite Reduction ([2]; 1.29 day post-dose, IV AS experiment): 97.1%
Parasite/µL, mean ([2]; 2.00 day post-dose): 1,383 Parasite/µL
Parasite Reduction ([2]; 2.00 day post-dose, IV AS experiment): 99.4%
Parasite/µL, mean ([2]; 2.29 day post-dose): 345 Parasite/µL
Parasite Reduction ([2]; 2.29 day post-dose, IV AS experiment): 99.8%
Parasite/µL, mean ([2]; 3.00 day post-dose): 96 Parasite/µL
Parasite Reduction ([2]; 3.00 day post-dose, IV AS experiment): 100.0%
Parasite Reduction ([2]; 3.29 day post-dose, IV AS experiment): 99.9%
Parasite/µL, mean ([2]; 4.00 day post-dose): 66 Parasite/µL
Parasite Reduction ([2]; 4.00 day post-dose, IV AS experiment): 100.0%
Parasite/µL, mean ([2]; 4.29 day post-dose): 87 Parasite/µL
Parasite Reduction ([2]; 4.29 day post-dose, IV AS experiment): 100.0%
Parasite/µL, mean ([2]; 5.00 day post-dose): 60 Parasite/µL
Parasite Reduction ([2]; 5.00 day post-dose, IV AS experiment): 100.0%
Parasite/µL, mean ([2]; 5.29 day post-dose): 31 Parasite/µL
Parasite Reduction ([2]; 5.29 day post-dose, IV AS experiment): 100.0%
Parasite/µL, mean ([2]; 6.00 day post-dose): 13 Parasite/µL
Parasite Reduction ([2]; 6.00 day post-dose, IV AS experiment): 100.0%
Parasite/µL, mean ([2]; 6.29 day post-dose): 23 Parasite/µL
Parasite Reduction ([2]; 6.29 day post-dose, IV AS experiment): 100.0%
Parasite/µL, mean ([2]; 7.00 day post-dose): 15 Parasite/µL
Parasite Reduction ([2]; 7.00 day post-dose, IV AS experiment): 100.0%
Parasite/µL, mean ([2]; 8.00 day post-dose): 4 Parasite/µL
Parasite Reduction ([2]; 8.00 day post-dose, IV AS experiment): 100.0%
Parasite/µL, mean ([2]; 9.00 day post-dose): 2 Parasite/µL
Parasite Reduction ([2]; 9.00 day post-dose, IV AS experiment): 100.0%
Parasite/µL, mean ([2]; 10.00 day post-dose): 0 Parasite/µL
Parasite Reduction ([2]; 10.00 day post-dose, IV AS experiment): 100.0%
PCT of individual animals ([2]; IV AL: the only two determinable, IV AS: the two most rapid): 4.0 days and 5.0 days
Recrudescence, median (range, n) ([2]; in vivo): 13 (9–19, 10) days
R, Day (recrudescence day), mean ([2]; n 2 IV AL, n 10 IV AS): 13 days
PC50 ([2]; range in evaluable animals (4 of 8 IV AL, 3 of 10 IV AS)): 0.32 to 5.88 h
Median PCT of the remaining eight monkeys ([2]; without the two most rapid): 8.0 days
tissue levels [4]: high levels of AS were found in brain, fat, intestine and serum
AUC (ePD) ([6]; mean (95 % CI)): 636 (524–748) µmol min L^−1
Cl (ePD) [6]: 0.83 (0.70–0.96) L h^−1 kg^−1

Reference: PMC5011932, “Comparative pharmacokinetics and pharmacodynamics of intravenous artelinate versus artesunate in uncomplicated Plasmodium coatneyi-infected rhesus monkey model” (Malaria Journal, 2016)
